# Data taken from the supplement of paper PMC6045584.
# ± gives the standard deviation of the averaged measurements.
# What was measured:
# [1] = compound: Oc1ccc(/C=C/c2cc(O)cc(O)c2)cc1 [RESVERATROL]; test: area under dose-response curve of surviving fraction (unscaled, Aref=0) (surviving fraction x log10(nM)); higher = more resistant; conditions: exposure time: 5 days; dose range 0.5-1000 nM
# Outline: (§1)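 Surviving fractions were fitted by 3-parameter logistic regression in the drc R package to give dose-response survival curves. They came from tumour cell lines treated for five days with eight inhibitor concentrations from 0.5 to 1000 nM and read by CellTiter-Glo luminescence against DMSO-only wells. The area under the curve is the unscaled activity area. It was calculated over log10 dose with Aref = 0.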
# [2] = compound: COc1ccc(C2=N[C@@H](c3ccc(Cl)cc3)[C@@H](c3ccc(Cl)cc3)N2C(=O)N2CCNC(=O)C2)c(OC(C)C)c1 [NUTLIN3]; test: as above; conditions: exposure time: 5 days; dose range 0.5-1000 nM
# Outline: as §1
# [3] = compound: COc1cccc2c1C(=O)c1c(O)c3c(c(O)c1C2=O)C[C@@](O)(C(=O)CO)C[C@@H]3O[C@H]1C[C@H](N)[C@H](O)[C@H](C)O1 [DOXORUBICIN]; test: as above; conditions: exposure time: 5 days; dose range 0.5-1000 nM
# Outline: as §1
# [4] = compound: CS(=O)(=O)CCNCc1ccc(-c2ccc3ncnc(Nc4ccc(OCc5cccc(F)c5)c(Cl)c4)c3c2)o1 [LAPATINIB]; test: as above; conditions: exposure time: 5 days; dose range 0.5-1000 nM
# Outline: as §1
# [5] = compound: CN1CC[C@H](c2c(O)cc(O)c3c(=O)cc(-c4ccccc4Cl)oc23)[C@H](O)C1 [FLAVOPIRIDOL]; test: as above; conditions: exposure time: 5 days; dose range 0.5-1000 nM
# Outline: as §1
# [6] = compound: C=CCNC1=C2C[C@@H](C)C[C@H](OC)[C@H](O)[C@@H](C)/C=C(\C)[C@H](OC(N)=O)[C@@H](OC)/C=C\C=C(/C)C(=O)NC(=CC1=O)C2=O [17-AAG]; test: as above; conditions: exposure time: 5 days; dose range 0.5-1000 nM
# Outline: as §1
# [7] = compound: CS(=O)(=O)c1ccc(C(=O)Nc2ccc(Cl)c(-c3ccccn3)c2)c(Cl)c1 [VISMODEGIB]; test: as above; conditions: exposure time: 5 days; dose range 0.5-1000 nM
# Outline: as §1
# [8] = compound: CC[C@@H](C(=O)[C@@H](C)[C@@H](O)[C@H](C)[C@@H]1O[C@@H]([C@@H](CC)C(=O)O)CC[C@@H]1C)[C@H]1O[C@]2(C=C[C@@H](O)[C@]3(CC[C@@](C)([C@H]4CC[C@](O)(CC)[C@H](C)O4)O3)O2)[C@H](C)C[C@@H]1C [SALINOMYCIN]; test: as above; conditions: exposure time: 5 days; dose range 0.5-1000 nM
# Outline: as §1
# [9] = compound: T1, Nc1ncn([C@H]2C[C@H](O)[C@@H](CO)O2)c(=O)n1 [DECITABINE]; test: as above; conditions: exposure time: 5 days; dose range 0.5-1000 nM
# Outline: as §1
# [10] = compound: CCN(CC)CCCCNc1ncc2cc(-c3cc(OC)cc(OC)c3)c(NC(=O)NC(C)(C)C)nc2n1; test: as above; conditions: exposure time: 5 days; dose range 0.5-1000 nM
# Outline: as §1
# [11] = compound: T1, DECITABINE; test: surviving fraction relative to DMSO-only wells; higher = less growth inhibition; conditions: exposure time: 5 days
# Outline: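 At 250–500 cells per well in 384-well plates, log-phase tumour cell lines were seeded and, 24 hours on, exposed continuously for five days to inhibitors at 0.5, 1, 5, 10, 50, 100, 500 and 1000 nM. Viability readout was CellTiter-Glo luminescence, reported as surviving fraction normalised to the median of DMSO-only wells.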
# [12] = compound: COc1cc2c(cc1O)CC[C@@H]1[C@@H]2CC[C@]2(C)[C@@H](O)CC[C@@H]12 [2-METHOXYESTRADIOL]; test: area under dose-response curve of surviving fraction (unscaled, Aref=0) (surviving fraction x log10(nM)); higher = more resistant; conditions: exposure time: 5 days; dose range 0.5-1000 nM
# Outline: as §1
# [13] = compound: CN(C)CC[C@H](CSc1ccccc1)Nc1ccc(S(=O)(=O)NC(=O)c2ccc(N3CCN(Cc4ccccc4-c4ccc(Cl)cc4)CC3)cc2)cc1[N+](=O)[O-] [ABT-737]; test: as above; conditions: exposure time: 5 days; dose range 0.5-1000 nM
# Outline: as §1
Test System,area under dose-response curve [1],area under dose-response curve [2],area under dose-response curve [3],area under dose-response curve [4],area under dose-response curve [5],area under dose-response curve [6],area under dose-response curve [7],area under dose-response curve [8],area under dose-response curve [9],area under dose-response curve [10],surviving fraction ([11]; 0.5 nM),surviving fraction ([11]; 1 nM),surviving fraction ([11]; 5 nM),surviving fraction ([11]; 10 nM),surviving fraction ([11]; 50 nM),surviving fraction ([11]; 100 nM),surviving fraction ([11]; 500 nM),surviving fraction ([11]; 1000 nM),area under dose-response curve [12],area under dose-response curve [13]
22RV1 PROSTATE,3.4,3.26,1.31,3.42,2.35,2.24,3.35,2.38,2.81,3.33,1.01 ± 0.024,0.935 ± 0.23,0.964 ± 0.19,0.897 ± 0.19,0.881 ± 0.27,0.801 ± 0.16,0.614 ± 0.17,0.509 ± 0.15,,
93VU HEADNECK,3.7,3.56,2.39,2.8,2.13,2.32,,2.79,3.07,,1.12 ± 0.086,1.09 ± 0.1,1.14 ± 0.12,1 ± 0.015,0.931 ± 0.035,0.933 ± 0.017,0.747 ± 0.03,0.657 ± 0.007,3.08,
143B BONE,,3.5,2.11,,,2.38,3.22,3.23,,3.04,1.09 ± 0.088,1.08 ± 0.09,1.09 ± 0.067,1.1 ± 0.069,1.13 ± 0.11,1.11 ± 0.076,0.992 ± 0.11,0.956 ± 0.031,,
ASKA SYNOVIAL,3.84,,0.989,3.82,2.27,1.27,3.21,3.15,3.08,,1.04 ± 0.07,1.01 ± 0.085,1.04 ± 0.026,1.03 ± 0.043,1.03 ± 0.067,0.952 ± 0.079,0.711 ± 0.075,0.6847 ± 0.0058,3.04,
BT20 BREAST,3.71,3.59,1.48,3.84,2.22,1.37,3.18,3.84,4.16,3.96,1.24 ± 0.16,1.14 ± 0.086,1.33 ± 0.072,1.28 ± 0.12,1.46 ± 0.037,1.33 ± 0.073,1.1 ± 0.075,0.844 ± 0.069,,
BT549 BREAST,3.52,3.68,1.41,3.45,2.02,1.1,2.93,2.75,2.69,,1.16 ± 0.084,1.16 ± 0.23,0.976 ± 0.095,1.06 ± 0.042,0.721 ± 0.051,0.724 ± 0.045,0.537 ± 0.064,0.452 ± 0.058,3.02,
CADOES1 SOFT TISSUE,3.21,2.81,1.99,,1.8,2.76,3.17,2.37,2.23,3.03,0.915 ± 0.1,0.962 ± 0.14,0.772 ± 0.11,0.951 ± 0.047,0.596 ± 0.096,0.448 ± 0.05,0.316 ± 0.061,0.278 ± 0.041,3.23,2.63
CHLA90 AUTONOMIC GANGLIA,3.38,3.33,1.8,,2.36,2.06,3.12,2.67,,2.92,0.953 ± 0.073,0.934 ± 0.085,0.953 ± 0.06,0.902 ± 0.017,1.01 ± 0.12,0.994 ± 0.099,0.984 ± 0.079,1 ± 0.063,3.22,3.26
HCC78 LUNG,,3.02,1.2,2.99,1.62,1.44,3.52,2.33,2.49,3.12,0.979 ± 0.07,1.01 ± 0.11,0.899 ± 0.15,0.913 ± 0.12,0.777 ± 0.21,0.709 ± 0.025,0.213 ± 0.037,0.166 ± 0.036,2.57,
HCC202 BREAST,,3.88,2.27,,,1.59,3.06,2.48,,4.1,1 ± 0.21,1.25 ± 0.5,1.23 ± 0.27,1.06 ± 0.27,1.09 ± 0.26,1.09 ± 0.16,1.23 ± 0.18,1.009 ± 0.0014,,
HCT15 LARGE INTESTINE,3.39,3.38,2.07,,2.01,1.85,3.26,2.74,3.19,3.28,1 ± 0.02,0.982 ± 0.056,0.967 ± 0.021,0.961 ± 0.017,1.05 ± 0.032,0.987 ± 0.032,0.835 ± 0.026,0.893 ± 0.032,2.65,3.46
HT1080 SOFT TISSUE,3.35,3.11,1.29,3.4,2.07,2.11,3.25,3.16,3.03,3.39,1.1 ± 0.043,1.08 ± 0.042,1.07 ± 0.024,1.1 ± 0.058,0.964 ± 0.026,0.928 ± 0.083,0.665 ± 0.06,0.627 ± 0.016,3.11,
HUO3N1 BONE,3.49,3.41,2,3.26,2.49,2.3,,2.41,,3.05,0.958 ± 0.022,0.99 ± 0.024,1.03 ± 0.056,1.05 ± 0.019,1.04 ± 0.022,1 ± 0.014,0.901 ± 0.017,0.879 ± 0.025,3.2,
MDAMB468 BREAST,3.56,3.39,2.09,,2.15,2.41,3.19,3.08,2.63,3.27,1.09 ± 0.083,1.08 ± 0.062,1.08 ± 0.098,1.03 ± 0.068,0.836 ± 0.04,0.658 ± 0.046,0.391 ± 0.02,0.341 ± 0.043,3.5,3.62
